How the values were obtained:
Experiment in all cases: Viral trapping in VLPs, MS analysis
Format in all cases: binding
[1] = target: T1, TMPRSS13 (Homo sapiens, UniProt Q9BYE2); details: all proteins (incl. low confidence identifications)
T1 construct: endogenous in cells; host or cells: HEK293T
Procedure: (§1) For mass spectrometry, 10^7 HEK293T cells were seeded in five flasks (75 cm^2) and transfected the next day with a total of 15 μg DNA per flask using polyethylene imine reagent. The following DNA quantities were used per flask: 7.5 μg of GAG-eDHFR, 5.4 μg of mock vector and 2.1 μg of a 50/50 mix of pMD2.G and pcDNA3-FLAG-VSV-G. The small molecule fusions were added immediately after transfection to the producing cells at a concentration of 1 μM. The same dilution of dimethyl sulfoxide (DMSO) was added in control experiments to control the effect of this chemical on the cells. The cellular supernatant was harvested after 32 hours and was centrifuged for 3 minutes at 450×g to remove cellular debris. The cleared supernatant was then filtered using 0.45 μm filters (Millipore). A total of 100 μl MyOne™ Streptavidin T1 beads (Life Technologies) pre-loaded with 10 μg ANTI-FLAG® BioM2-Biotin antibody (Sigma-Aldrich®) was used to bind the tagged particles. Particles were allowed to bind for 2 hours by end-over-end rotation. The total supernatant was processed in three consecutive binding steps. Bead-particle complexes were washed once with washing buffer (TWB: 20 mM Tris-HCl pH 7.5, 150 mM NaCl) and were then eluted with FLAG peptide (200 μg/ml in TWB) and lysed by addition of SDS to a final concentration of 0.1%. After 5 minutes, SDS was removed using HiPPR Detergent Removal Spin Columns (Pierce, Thermo Scientific) followed by boiling and overnight digestion with 0.5 μg sequence-grade trypsin (Promega). After acidification (0.1% TFA final), the peptides were separated by nano-LC and directly analyzed with a Q Exactive instrument (Thermo Scientific).
(§2) For tamoxifen, four biological repeats were performed where the cells were treated with MTX-PEG6-tamoxifen after transfection. The obtained protein lists after viral trapping and MS analysis were challenged with protein lists coming from the four DMSO controls, the 19 control experiments and the lists obtained for the MTX-PEG6-simvastatin and MTX-PEG6-reversine (see below) for a total of 30 samples.

[2] = target: T2, SSNA1 (Homo sapiens, UniProt O43805)
T2 construct: endogenous in cells; host or cells: HEK293T
Procedure: as §1, §2

[3] = target: T3, PRAF2 (Homo sapiens, UniProt O60831); details: all proteins (incl. low confidence identifications)
T3 construct: endogenous in cells; host or cells: HEK293T
Procedure: as §1, §2

[4] = target: T4, HSD17B12 (Homo sapiens, UniProt Q53GQ0); details: all proteins (incl. low confidence identifications)
T4 construct: endogenous in cells; host or cells: HEK293T
Procedure: as §1, §2

[5] = target: T5, SREBF2 (Homo sapiens, UniProt Q12772); details: all proteins (incl. low confidence identifications)
T5 construct: endogenous in cells; host or cells: HEK293T
Procedure: as §1, §2

[6] = target: T6, ESYT1 (Homo sapiens, UniProt Q9BSJ8)
T6 construct: endogenous in cells; host or cells: HEK293T
Procedure: as §1, §2

[7] = target: T7, TAOK2 (Homo sapiens, UniProt Q9UL54); details: all proteins (incl. low confidence identifications)
T7 construct: endogenous in cells; host or cells: HEK293T
Procedure: as §1, §2

[8] = target: T8, ESYT2 (Homo sapiens, UniProt A0FGR8)
T8 construct: endogenous in cells; host or cells: HEK293T
Procedure: as §1, §2

[9] = target: T9, MDH2 (Homo sapiens, UniProt P40926)
T9 construct: endogenous in cells; host or cells: HEK293T
Procedure: as §1, §2

[10] = target: T10, DNAJB12 (Homo sapiens, UniProt Q9NXW2); details: all proteins (incl. low confidence identifications)
T10 construct: endogenous in cells; host or cells: HEK293T
Procedure: as §1, §2

[11] = target: T11, CGN1 (Bos taurus, UniProt P23805); details: all proteins (incl. low confidence identifications)
T11 construct: host or cells: VLPs from HEK293T supernatant
Procedure: as §1, §2

[12] = target: T12, LRRC59 (Homo sapiens, UniProt Q96AG4); details: all proteins (incl. low confidence identifications)
T12 construct: endogenous in cells; host or cells: HEK293T
Procedure: as §1, §2

[13] = target: T13, RTN4 (Homo sapiens, UniProt Q9NQC3)
T13 construct: endogenous in cells; host or cells: HEK293T
Procedure: as §1, §2

[14] = target: T14, PTPLAD1 (Homo sapiens, UniProt Q9P035); details: all proteins (incl. low confidence identifications)
T14 construct: endogenous in cells; host or cells: HEK293T
Procedure: as §1, §2

[15] = target: T15, EPHX1 (Homo sapiens, UniProt P07099); details: all proteins (incl. low confidence identifications)
T15 construct: endogenous in cells; host or cells: HEK293T
Procedure: as §1, §2

[16] = target: T16, REEP4 (Homo sapiens, UniProt Q9H6H4)
T16 construct: endogenous in cells; host or cells: HEK293T
Procedure: as §1, §2

[17] = target: T17, ENPP4 (Homo sapiens, UniProt Q9Y6X5); details: all proteins (incl. low confidence identifications)
T17 construct: endogenous in cells; host or cells: HEK293T
Procedure: as §1, §2

[18] = target: T18, UBQLN2 (Homo sapiens, UniProt Q9UHD9)
T18 construct: endogenous in cells; host or cells: HEK293T
Procedure: as §1, §2

[19] = target: T19, EI24 (Homo sapiens, UniProt O14681); details: all proteins (incl. low confidence identifications)
T19 construct: endogenous in cells; host or cells: HEK293T
Procedure: as §1, §2

[20] = target: T20, ZMPSTE24 (Homo sapiens, UniProt O75844); details: all proteins (incl. low confidence identifications)
T20 construct: endogenous in cells; host or cells: HEK293T
Procedure: as §1, §2

[21] = target: T21, TBL2 (Homo sapiens, UniProt Q9Y4P3)
T21 construct: endogenous in cells; host or cells: HEK293T
Procedure: as §1, §2

[22] = target: T22, PCSK5 (Homo sapiens, UniProt Q92824); details: all proteins (incl. low confidence identifications)
T22 construct: endogenous in cells; host or cells: HEK293T
Procedure: as §1, §2

[23] = target: T23, VAPA (Homo sapiens, UniProt Q9P0L0)
T23 construct: endogenous in cells; host or cells: HEK293T
Procedure: as §1, §2

[24] = target: T24, DCAKD (Homo sapiens, UniProt Q8WVC6); details: all proteins (incl. low confidence identifications)
T24 construct: endogenous in cells; host or cells: HEK293T
Procedure: as §1, §2

[25] = all proteins (incl. low confidence identifications)
[26] = proteins identified with >1 peptide (high confidence)

T21 sequence (Q9Y4P3 whole entry): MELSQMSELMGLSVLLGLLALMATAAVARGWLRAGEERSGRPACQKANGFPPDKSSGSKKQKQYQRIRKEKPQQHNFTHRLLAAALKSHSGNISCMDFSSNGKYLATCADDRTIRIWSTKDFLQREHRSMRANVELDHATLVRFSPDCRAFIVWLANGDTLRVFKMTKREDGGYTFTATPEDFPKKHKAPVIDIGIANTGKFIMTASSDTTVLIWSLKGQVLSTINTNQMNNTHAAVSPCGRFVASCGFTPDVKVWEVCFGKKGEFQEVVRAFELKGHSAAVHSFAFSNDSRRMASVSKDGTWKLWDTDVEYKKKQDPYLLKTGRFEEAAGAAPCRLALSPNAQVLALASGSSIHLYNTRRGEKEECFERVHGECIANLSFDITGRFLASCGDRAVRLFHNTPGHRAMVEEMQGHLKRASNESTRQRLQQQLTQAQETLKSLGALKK
T16 sequence (Q9H6H4 whole entry): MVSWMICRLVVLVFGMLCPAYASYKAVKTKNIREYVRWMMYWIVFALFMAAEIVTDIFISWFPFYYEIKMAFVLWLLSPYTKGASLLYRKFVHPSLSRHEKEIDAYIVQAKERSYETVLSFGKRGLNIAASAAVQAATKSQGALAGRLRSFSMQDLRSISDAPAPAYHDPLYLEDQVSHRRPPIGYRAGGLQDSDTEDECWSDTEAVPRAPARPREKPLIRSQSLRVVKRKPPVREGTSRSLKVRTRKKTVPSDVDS
T18 sequence (Q9UHD9 whole entry): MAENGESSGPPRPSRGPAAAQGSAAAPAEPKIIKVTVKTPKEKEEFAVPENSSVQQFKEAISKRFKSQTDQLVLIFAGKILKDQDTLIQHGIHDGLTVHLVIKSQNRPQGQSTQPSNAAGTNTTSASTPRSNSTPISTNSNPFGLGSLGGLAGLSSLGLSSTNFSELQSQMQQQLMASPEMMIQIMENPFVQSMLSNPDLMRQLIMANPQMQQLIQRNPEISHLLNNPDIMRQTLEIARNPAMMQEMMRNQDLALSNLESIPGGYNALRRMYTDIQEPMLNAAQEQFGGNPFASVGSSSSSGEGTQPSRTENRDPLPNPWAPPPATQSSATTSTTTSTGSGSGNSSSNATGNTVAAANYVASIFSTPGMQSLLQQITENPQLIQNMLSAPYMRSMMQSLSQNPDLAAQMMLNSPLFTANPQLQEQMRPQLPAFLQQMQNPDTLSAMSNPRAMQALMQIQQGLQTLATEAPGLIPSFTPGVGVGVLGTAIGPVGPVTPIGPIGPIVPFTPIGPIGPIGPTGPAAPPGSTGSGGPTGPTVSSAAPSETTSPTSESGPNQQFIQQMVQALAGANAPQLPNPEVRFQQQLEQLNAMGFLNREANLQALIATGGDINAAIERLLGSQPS
T6 sequence (Q9BSJ8 whole entry): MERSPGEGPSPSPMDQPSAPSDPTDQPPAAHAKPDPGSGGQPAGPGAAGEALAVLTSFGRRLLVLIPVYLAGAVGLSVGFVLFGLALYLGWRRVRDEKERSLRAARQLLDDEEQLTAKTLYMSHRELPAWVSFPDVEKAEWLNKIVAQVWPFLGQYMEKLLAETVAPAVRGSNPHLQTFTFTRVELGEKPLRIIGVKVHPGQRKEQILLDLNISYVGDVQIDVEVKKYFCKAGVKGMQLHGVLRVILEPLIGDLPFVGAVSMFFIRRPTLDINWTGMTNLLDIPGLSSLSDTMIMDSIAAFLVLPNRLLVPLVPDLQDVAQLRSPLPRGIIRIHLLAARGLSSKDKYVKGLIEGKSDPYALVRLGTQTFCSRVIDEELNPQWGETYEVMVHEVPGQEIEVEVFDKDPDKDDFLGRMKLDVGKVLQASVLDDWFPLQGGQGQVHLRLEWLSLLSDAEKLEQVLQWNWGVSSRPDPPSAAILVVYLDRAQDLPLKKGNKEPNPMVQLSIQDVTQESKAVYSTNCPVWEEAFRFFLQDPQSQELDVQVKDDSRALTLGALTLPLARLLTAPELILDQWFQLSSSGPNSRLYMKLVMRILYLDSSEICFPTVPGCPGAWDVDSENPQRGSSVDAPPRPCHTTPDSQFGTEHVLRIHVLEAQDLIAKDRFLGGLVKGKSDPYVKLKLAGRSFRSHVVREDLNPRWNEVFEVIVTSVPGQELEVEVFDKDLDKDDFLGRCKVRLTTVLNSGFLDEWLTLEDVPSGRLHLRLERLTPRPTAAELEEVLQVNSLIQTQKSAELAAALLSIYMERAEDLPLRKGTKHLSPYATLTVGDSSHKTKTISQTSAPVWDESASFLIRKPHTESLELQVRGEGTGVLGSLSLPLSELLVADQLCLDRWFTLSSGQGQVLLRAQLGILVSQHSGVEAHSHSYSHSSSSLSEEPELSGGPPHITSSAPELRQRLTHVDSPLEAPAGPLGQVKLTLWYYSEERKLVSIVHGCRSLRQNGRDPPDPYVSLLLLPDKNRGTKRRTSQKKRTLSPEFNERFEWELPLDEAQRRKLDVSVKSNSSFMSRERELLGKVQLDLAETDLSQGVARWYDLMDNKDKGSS
T8 sequence (A0FGR8 whole entry): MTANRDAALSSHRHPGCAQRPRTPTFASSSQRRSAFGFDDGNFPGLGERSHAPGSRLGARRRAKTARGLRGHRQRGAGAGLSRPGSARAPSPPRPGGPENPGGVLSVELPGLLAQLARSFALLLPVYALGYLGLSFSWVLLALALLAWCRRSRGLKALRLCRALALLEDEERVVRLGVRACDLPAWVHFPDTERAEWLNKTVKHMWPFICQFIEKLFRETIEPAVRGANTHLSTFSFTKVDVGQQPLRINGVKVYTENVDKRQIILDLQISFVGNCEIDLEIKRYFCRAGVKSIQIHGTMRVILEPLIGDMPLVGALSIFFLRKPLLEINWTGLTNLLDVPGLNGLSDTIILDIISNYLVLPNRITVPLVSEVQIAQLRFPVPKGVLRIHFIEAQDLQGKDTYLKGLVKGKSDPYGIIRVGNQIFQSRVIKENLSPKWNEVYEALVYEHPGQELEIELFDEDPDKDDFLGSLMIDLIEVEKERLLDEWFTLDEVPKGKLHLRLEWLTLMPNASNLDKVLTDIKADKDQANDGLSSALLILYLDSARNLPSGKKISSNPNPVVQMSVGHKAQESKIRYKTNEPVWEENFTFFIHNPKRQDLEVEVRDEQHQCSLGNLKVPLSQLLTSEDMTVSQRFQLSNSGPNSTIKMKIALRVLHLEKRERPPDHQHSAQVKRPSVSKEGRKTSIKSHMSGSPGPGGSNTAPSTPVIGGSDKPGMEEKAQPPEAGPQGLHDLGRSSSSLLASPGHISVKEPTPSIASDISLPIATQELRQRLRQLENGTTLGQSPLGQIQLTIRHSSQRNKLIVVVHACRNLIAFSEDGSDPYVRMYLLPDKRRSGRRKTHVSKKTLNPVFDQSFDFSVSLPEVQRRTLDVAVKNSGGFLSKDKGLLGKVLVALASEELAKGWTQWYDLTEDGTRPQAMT
T13 sequence (Q9NQC3 whole entry): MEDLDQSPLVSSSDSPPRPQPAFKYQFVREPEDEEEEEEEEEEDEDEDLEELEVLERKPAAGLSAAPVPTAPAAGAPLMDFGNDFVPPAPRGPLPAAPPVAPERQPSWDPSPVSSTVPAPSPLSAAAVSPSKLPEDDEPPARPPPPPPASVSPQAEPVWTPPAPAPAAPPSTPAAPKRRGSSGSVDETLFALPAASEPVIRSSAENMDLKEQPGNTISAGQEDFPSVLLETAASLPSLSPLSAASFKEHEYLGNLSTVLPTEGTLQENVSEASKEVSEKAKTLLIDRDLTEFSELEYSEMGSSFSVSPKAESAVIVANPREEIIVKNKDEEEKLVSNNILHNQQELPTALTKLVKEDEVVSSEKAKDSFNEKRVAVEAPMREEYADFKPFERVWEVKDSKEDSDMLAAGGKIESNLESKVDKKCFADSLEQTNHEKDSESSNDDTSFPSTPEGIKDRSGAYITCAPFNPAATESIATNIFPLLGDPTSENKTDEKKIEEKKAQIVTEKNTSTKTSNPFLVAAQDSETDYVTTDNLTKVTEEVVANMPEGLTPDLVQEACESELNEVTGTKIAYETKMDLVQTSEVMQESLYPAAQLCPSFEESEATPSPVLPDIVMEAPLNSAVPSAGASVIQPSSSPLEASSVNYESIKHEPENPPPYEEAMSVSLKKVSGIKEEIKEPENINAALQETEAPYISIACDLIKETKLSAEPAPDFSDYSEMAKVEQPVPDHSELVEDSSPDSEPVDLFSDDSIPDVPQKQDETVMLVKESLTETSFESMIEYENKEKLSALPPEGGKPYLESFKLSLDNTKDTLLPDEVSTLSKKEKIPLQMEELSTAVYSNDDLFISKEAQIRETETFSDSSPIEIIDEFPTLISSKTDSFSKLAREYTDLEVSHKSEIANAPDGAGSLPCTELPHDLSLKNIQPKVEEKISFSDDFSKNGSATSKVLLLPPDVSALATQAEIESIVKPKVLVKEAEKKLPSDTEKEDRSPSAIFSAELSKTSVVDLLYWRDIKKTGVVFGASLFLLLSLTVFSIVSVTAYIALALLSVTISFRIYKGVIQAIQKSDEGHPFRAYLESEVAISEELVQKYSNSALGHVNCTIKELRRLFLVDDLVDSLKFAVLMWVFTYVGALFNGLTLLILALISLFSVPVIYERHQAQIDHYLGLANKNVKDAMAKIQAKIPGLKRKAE
T23 sequence (Q9P0L0 whole entry): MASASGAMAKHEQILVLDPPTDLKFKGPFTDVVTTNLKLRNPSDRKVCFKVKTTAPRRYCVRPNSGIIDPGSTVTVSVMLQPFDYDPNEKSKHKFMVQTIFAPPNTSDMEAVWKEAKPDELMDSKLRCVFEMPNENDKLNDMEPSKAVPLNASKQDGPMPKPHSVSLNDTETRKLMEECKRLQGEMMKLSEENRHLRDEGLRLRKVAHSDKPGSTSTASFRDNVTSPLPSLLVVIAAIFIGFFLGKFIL
T2 sequence (O43805 whole entry): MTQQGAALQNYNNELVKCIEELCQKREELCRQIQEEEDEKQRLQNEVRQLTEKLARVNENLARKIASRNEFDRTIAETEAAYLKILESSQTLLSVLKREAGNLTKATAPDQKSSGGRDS

CCC(=C(c1ccccc1)c1ccc(OCCN(C)Cc2cn(CCOCCOCCOCCOCCOCCNC(=O)CCC(NC(=O)c3ccc(N(C)Cc4cnc5nc(N)nc(N)c5n4)cc3)C(=O)O)nn2)cc1)c1ccccc1 (stereo not drawn) [MTX-PEG6-tamoxifen]
Recurrence (x/4) [1]: 1 x/4 | Recurrence (x/4) [2, 25]: 4 x/4 | Recurrence (x/4) [2, 26]: 2 x/4 | Recurrence (x/4) [3]: 1 x/4 | Recurrence (x/4) [4]: 1 x/4 | Recurrence (x/4) [5]: 1 x/4 | Recurrence (x/4) [6, 25]: 1 x/4 | Recurrence (x/4) [6, 26]: 1 x/4 | Recurrence (x/4) [7]: 1 x/4 | Recurrence (x/4) [8, 25]: 1 x/4 | Recurrence (x/4) [8, 26]: 1 x/4 | Recurrence (x/4) [9, 25]: 1 x/4 | Recurrence (x/4) [9, 26]: 1 x/4 | Recurrence (x/4) [10]: 1 x/4 | Recurrence (x/4) [11]: 1 x/4 | Recurrence (x/4) [12]: 1 x/4 | Recurrence (x/4) [13, 25]: 1 x/4 | Recurrence (x/4) [13, 26]: 1 x/4 | Recurrence (x/4) [14]: 1 x/4 | Recurrence (x/4) [15]: 1 x/4 | Recurrence (x/4) [16, 25]: 2 x/4 | Recurrence (x/4) [16, 26]: 2 x/4 | Recurrence (x/4) [17]: 1 x/4 | Recurrence (x/4) [18, 25]: 1 x/4 | Recurrence (x/4) [18, 26]: 1 x/4 | Recurrence (x/4) [19]: 2 x/4 | Recurrence (x/4) [20]: 1 x/4 | Recurrence (x/4) [21, 25]: 3 x/4 | Recurrence (x/4) [21, 26]: 2 x/4 | Recurrence (x/4) [22]: 1 x/4 | Recurrence (x/4) [23, 25]: 1 x/4 | Recurrence (x/4) [23, 26]: 1 x/4 | Recurrence (x/4) [24]: 2 x/4

Source: US11231416B2, “Virus-like particle (VLP) based small molecule-protein interaction trap” (VIB VZW, priority 2015, dated 2022)
